This note sets out measurements from patent US20250327794A1, “FLUOROMETRIC METHODS FOR DETECTION OF ALLERGIC SENSITIVITY TO ENVIRONMENTAL, FOODSTUFF, AND MEDICAMENT STIMULANTS” (CELL SCIENCE SYSTEMS CORPORATION, priority 2022, published 2025).

SMILES strings stand for the structures.

The test system of the test is white blood cells. The experiment in a line: Propidium iodide (PI) staining by flow cytometry, channel 3 FL3-A. The class given is cell-based, human. Here is the method:
Cell viability determination using DNA staining was incorporated to improve flow cytometry analysis of granulocyte subpopulations. […] Throughout Example 2, additional exogenous stimulants were tested for their ability to instigate granulocyte release of ROS.
Flow cytometry analysis of human blood samples was performed following exposure to exogenous dust mite (“DM”) stimulant using time course measurements of RH 123 and PI fluorescence. Density plots and histograms were determined for samples containing: control cells only, DHR 123 only, DHR 123+PMA stimulant (positive control), DHR 123+DM stimulant, and DHR 123+3× DM stimulant, following incubation times of 0.5 hours (FIGS. 9A-9J), 1.5 hours (FIGS. 10A-10J), and 2.5 hours (FIGS. 11A-11J), respectively. Propidium iodide staining was used as a measure of cell viability.
Flow cytometry analysis of human blood samples was performed following exposure to exogenous DM, ragweed pollen (RWP), milk (MLK), cucumber (CUC), and basil (BAS) stimulants using RH 123 and PI fluorescence measurement. Density plots and histograms were determined for samples containing: control cells, DHR 123 only, DHR 123+PMA stimulant, DHR 123+DM stimulant, DHR 123+RWP stimulant (1×: 2.5 μL; 2×: 5.0 μL), DHR 123+MLK stimulant (5 μL), DHR 123+CUC stimulant (5 μL), and DHR 123+BAS stimulant (5 μL), following an incubation times of 0.5, 1.5, and 2.5 hours. See RH 123 (FL1-A) density plots at FIGS. 13A-13H; RH 123 (FL1-A) histograms at FIGS. 14A-14H; propidium iodide (PI) (FL3-A) density plots at FIGS. 15A-15H; PI (FL3-A) histograms at FIGS. 16A-16H).
DHR 123 and PI flow cytometry blood testing was repeated using increased amounts of stimulant (8 μL of DM stimulant or RWP stimulant per 100 μL blood) and incubated for 2.5 hours.
(In flow cytometry, cells or beads pass a laser one at a time.)

Take `CCCCCCCCCCCCCC(=O)O[C@@H]1[C@@H](C)[C@@]2(O)[C@@H](C=C(CO)C[C@]3(O)C(=O)C(C)=C[C@@H]23)[C@@H]2C(C)(C)[C@]12OC(C)=O` [PMA, Phorbol-12-Myristate-13-Acetate]: the “MFI (2.5 h) FL3-A” value runs as follows: (PMA or DM 2 μL/100 μL blood (Table 4)) 17,902.33; (increased stimulant, 8 μL DM or RWP per 100 μL blood (Table 7)) 11,914.00. The “Mean FL3-A (2.5 h)” value (PMA, RWP1 2.5 μL, MLK, CUC, BAS 5 μL per 100 μL blood (Table 6)) is 34,645.62.
